Results published in patent US8772237B2, “Compositions and methods for counteracting effects of reactive oxygen species and free radicals” (Ischemix, Inc., priority 1999, dated 2014).
Ends that are not written are not given here.

What was measured:
[1] = system: superoxide dismutase (SOD) protein; assay: Western immunoblot of SOD protein in rat brain primary cortical cultures; format: cell-based; conditions: Dose 6.7 pmol/ml, 5 hours at 37° C.
Description: Primary cortical cultures were obtained by growing newborn rat brain cortical cells in Delbecco's modified Eagle medium supplemented with 25 μg/ml of gentamycin and 10% fetal calf serum. The cells were isolated from the E-21 cortex of rat brain, plated at a density of 1×10^5 per ml and grown to confluence within four to five days in an atmosphere containing air and 5% CO2 at 37° C. as described in Cornell-Bell et al., Science, 247: 470-473 (1990) and Cell Calcium, 12: 185-204 (1991). Cultures were grown in 20 ml flasks as a monolayer and then exposed to various concentrations of peptides for studies of the effects of peptides on upregulation of genes for SOD and CAT and on the transmigration of transcription factor AP-1 to cell nuclei. […]
(§1) Tissue culture experiments were carried out using primary cultures of rat brain cortical cells as previously described above in Example 2. Primary cultures from embryonic rat brain isolated at E-21 (21 day embryos) and incubated for five hours with various doses: 1, 10, 100 ng/ml of CMX-99672. Cytoplasmic proteins were isolated and analyzed for upregulation of SOD and CAT by Western immunoblots as described above. […] The Western blot was scanned to quantify the fold-increase in SOD production in cell cultures treated with the CMX-99672 peptide compound.
Representative peptide compounds were tested at various doses and compared for their ability to upregulate expression of genes for SOD and/or CAT in rat primary cortical cultures basically as described above. Cultures were incubated with a peptide compound for 5 hours at 37° C. Cytoplasmic protein fractions were prepared as described above. Cytoplasmic proteins were separated by gel electrophoresis and analyzed by Western immunoblots using antisera to SOD and CAT, respectively (Rockland, Inc., Gilbertsville, Pa.). […]

catalase (CAT) mRNA = assay: RT-PCR upregulation of catalase (CAT) mRNA in primary rat cortical cultures; format: cell-based; conditions: 100 ng/ml
Description: Peptide compounds of the invention may also upregulate mRNA for catalase (CAT). Experiments using the RT-PCR methods to detect upregulation of CAT mRNA in primary rat cortical brain cultures treated with various representative peptide compounds, i.e., CMX-9236, CMX-9963, and CMX-9967. The catalase probe duplex consisted of a sense primer having the sequence […] (SEQ ID NO:31) and antisense primer having the sequence […] (SEQ ID NO:32) flanking a 95 bp region of the CAT DNA.
Primary rat brain cortical cell cultures were incubated with 100 ng/ml of the peptide compound CMX-9236 for 0, 0.5, 1, 2, 3, 6, 12, 24, and 48 hours. […] The upregulation of CAT mRNA was maximal at 3 hours after the addition of the peptide compound, and it decreased back to control levels at 48 hours. GAPDH was the internal standard in these experiments. […] A 13-fold increase in CAT mRNA levels was observed (over control) of CAT mRNA occurred when primary rat brain cortical cultures were incubated with 100 ng/ml of CMX-9236 for 3 hours.

[2] = system: middle cerebral artery (MCA) temporary occlusion stroke model; assay: Temporary MCA occlusion stroke model; format: in vivo, Sprague-Dawley rats
Description: (§2) The in vivo neuroprotective effects of CMX-9236 were investigated in both temporary and permanent occlusion stroke models in Sprague-Dawley rats using an intraluminal suture of the middle cerebral artery (MCA) occlusion method (Zea Longa et al., Stroke, 20: 84 (1989)). Briefly, a 4-0 silicone-coated suture was inserted through the right common carotid artery to block the MCA orifice. In the temporary model, CMX-9236 (6.2 mg/kg/hr) or vehicle was administered via the femoral vein at 30 minutes after the start of a 2-hour occlusion for a 4-hour continuous infusion; the rats were then reperfused by withdrawing the suture at […] after the MCA occlusion. All experiments were performed in a blinded and randomized manner, and rectal temperature was maintained at 37° C. The animals were sacrificed, and their brains were removed, sectioned into six 2-mm-thick coronal slices and stained with 2,3,5-triphenyltetrazolium chloride solution (Bederson et al., Stroke, 17:1304 (1986)) to visualize the extent of brain damage for the calculation of the corrected hemispheric infarct volumes (Nagasawa and Kogure, Stroke, 20:1037 (1989); Li et al., J. Cereb. Blood Flow Metab., 17:1132 (1997)). […] This represents a significant reduction of infarct size (35±5%, p=0.01, student t-test) for the CMX-9236-treated group in the temporary occlusion model. There was also a 58+11% improvement in the neurological scoring (Minematsu et al., Neurology, 42:235 (1992)) for the peptide-treated group versus controls at the end of 24 hours.

[3] = system: middle cerebral artery (MCA) permanent occlusion stroke model; assay: Permanent MCA 24-hour occlusion stroke model; format: in vivo, Sprague-Dawley rats
Description: as §2
In the permanent occlusion stroke model, the blood flow to the MCA territory was blocked for the total 24-hour period. A continuous i.v. infusion (0.5 ml/hr) of the CMX-9236 peptide (2.04 mg/kg/hr) or vehicle was initiated at 30 minutes after occlusion for 6 hours, followed by a bolus i.v. infusion of CMX-9236 (4.0 mg/kg in 0.5 ml delivered over 10 minutes) or vehicle at 12 hours after occlusion. The corrected infarct volumes were 127.5±18 mm^3 versus 216±18 mm^3 for drug-treated animals and controls, respectively. This represents a significant decrease (41±5%, p=0.003, student t-test) in infarct size for the drug-treated group as compared to the vehicle-treated control group (n=10 per group) in the permanent model, indicating a substantial rescue of brain tissue. These findings indicate that CMX-9236 has neuroprotective properties post-trauma in vivo, reducing the brain damage generated by cerebral ischemia.

catalase (CAT) protein = assay: Western immunoblot of CAT protein in rat primary cortical cultures; format: cell-based; conditions: Dose 67 pmol/ml, 5 hours at 37° C.
Description: as §1
Representative peptide compounds were tested at various doses and compared for their ability to upregulate expression of genes for SOD and/or CAT in rat primary cortical cultures basically as described above. Cultures were incubated with a peptide compound for 5 hours at 37° C. Cytoplasmic protein fractions were prepared as described above. Cytoplasmic proteins were separated by gel electrophoresis and analyzed by Western immunoblots using antisera to SOD and CAT, respectively (Rockland, Inc., Gilbertsville, Pa.).

Sequence: KKDGDGDFAIDAPE [CMX-9236, uncapped peptide]
- SOD [1]: 466 % Control
- time at which CAT mRNA decreased back to control levels (catalase (CAT) mRNA): 48 h
- time of maximal upregulation of CAT mRNA after addition (catalase (CAT) mRNA): 3 h
- increase in CAT mRNA levels over control (catalase (CAT) mRNA; 3 hours): 13 fold
- corrected infarct volume (mean±S.E.) ([2]; 6.2 mg/kg/hr i.v., 4-hour infusion from 30 min after start of occlusion, n=10): 117.3±17 mm^3
- reduction of infarct size vs vehicle ([2]; 6.2 mg/kg/hr, p=0.01): 35±5%
- improvement in neurological scoring vs controls ([2]; at the end of 24 hours): 58+11%
- corrected infarct volume ([3]; 2.04 mg/kg/hr i.v. for 6 hours from 30 min, plus 4.0 mg/kg bolus at 12 hours, n=10): 127.5±18 mm^3
- decrease in infarct size vs vehicle ([3]; 2.04 mg/kg/hr infusion plus 4.0 mg/kg bolus, p=0.003): 41±5%
- CAT (catalase (CAT) protein): 652 % Control
